{
  "source": "patent US20070213354A1",
  "about": "“Compositions and Methods for the Treatment of Multiple Sclerosis” (AmpliMed Corporation, priority 2006, published 2007)",
  "key": {"acute monophasic EAE [1]": {"tested_on": "acute monophasic EAE", "assay": "Acute monophasic EAE, drug administration beginning with immunization", "format": "in vivo, C57/BL6 mice", "settings": "for Day of Onset / Incidence / Mean Clinical Score: 30 day observation; for Max. Clinical Score: scale 0 to 5", "description": "(§1) An acute monophasic form of EAE, induced by the administration of MOG, mimics the progressive clinical patterns of MS seen in human patients and can provide an opportunity to investigate a therapy's ability to prevent progression to symptomatic disease, to prevent or reduce the disability that would otherwise be caused by disease progression, or to treat one or more clinical symptoms of MS. The induction of the acute monophasic form of EAE in C57/BL6 mice can be achieved as described in Gaupp et al., Am J Pathol. 162(1): 139-150 (2003). Similarly, a relapsing-remitting form of EAE, induced by the administration of PLP, mimics the more common relapsing-remitting form of MS seen in humans and can provide an opportunity to investigate potential therapies to reduce the frequency, severity, or duration of a disease relapse, to otherwise prevent disability caused by disease progression, or to relieve one or more clinical symptoms of MS in human patients. The induction of the relapsing-remitting form of EAE in SJL/J mice can be achieved as described in Fridkis-Hareli et al., J Clin Invest. 109(12): 1635-1643 (2002).\n(§2) Acute monophasic EAE was induced in C57/BL6 mice by subcutaneous flank and tail base injections of 200 μg of MOG in complete Freund's adjuvent containing 500 μg of heat-inactivated mycobacterium tuberculosis on day 0, supplemented by intravenous injections of 200 ng of pertussis toxin on day 2.\nWith reference first to FIGS. 1-3, beginning on the day of immunization for acute monophasic EAE, nine groups of mice (each group containing 5 or 6 individuals) were treated with either ethonafide (AMP; a compound of Formula (II) wherein the dibenzisoquinoline ring structure is substituted at position 6 with —OCH2CH3) or mitoxantrone at a dose of 0.125 mg/kg, 0.25 mg/kg, or 0.5 mg/kg daily for seven days, or were left untreated to be used as a control at each respective dose level. Each drug was administered intraperitoneally in phosphate buffered saline (untreated mice received i.p. administrations of the PBS vehicle). The mice were observed daily for clinical signs of disease, and were scored (by multiple investigators) on an arbitrary scale from 0 to 5 in increments of 0.5 according to the following parameters: 0—no clinical signs of disease; 1—flaccid tail; 2—hind limb weakness or abnormal gait; 3—complete hind paralysis; 4—complete hind paralysis with forelimb weakness or paralysis; and 5-moribund or deceased. The incidence of disease in the immunized mice, the day of disease onset, the maximum clinical score, and the mean clinical score over a 30 day observation period were determined, and the results are shown in Table 2."}, "L1210 sensitive": {"tested_on": "L1210 sensitive", "settings": "murine leukemia L1210 sensitive to standard cytotoxic agents; MTT, continuous exposure; cited from earlier work"}, "neonatal rat myocytes": {"tested_on": "neonatal rat myocytes", "settings": "1 hour drug concentration that reduces ATP/protein ratio to 50% of untreated control myocytes; read-out: IC50 Cardiotox; cited from earlier work"}, "acute monophasic EAE [2]": {"tested_on": "acute monophasic EAE", "assay": "Acute monophasic EAE, drug administration beginning on day 11 post immunization", "format": "in vivo, C57/BL6 mice", "settings": "for Mean Clinical Score / Day of Onset / Incidence: 32 day observation; for Mean Clinical Score: mice that had evidence of disease; for Max. Clinical Score: scale 0 to 5", "description": "as §1, §2\nWith reference now to FIG. 4, five groups of mice (each group containing 5 or 6 individuals), immunized for acute monophasic EAE as described hereinbefore, were treated with either ethonafide (AMP) or mitoxantrone at a dose of 0.5 mg/kg or 1.0 mg/kg beginning on day 11 following immunization, for seven days, or were left untreated to be used as a control. Each drug was administered intraperitoneally in phosphate buffered saline (untreated mice received i.p. administrations of the PBS vehicle). The mice were observed daily for clinical signs of disease and were scored as indicated hereinbefore on a clinical scale from 0 to 5. The incidence of disease in the immunized mice, the day of disease onset, the maximum clinical score, and the mean clinical score over a 32 day observation period were determined, and the results are shown in Table 3."}, "L1210 resistant": {"tested_on": "L1210 resistant", "settings": "murine leukemia L1210 resistant, P-glycoprotein producing; MTT, continuous exposure; cited from earlier work"}, "[3]": {"settings": "0.125 mg/kg i.p. daily for seven days from day of immunization"}, "[4]": {"settings": "0.125 mg/kg i.p. daily for seven days from day of immunization, mice that had evidence of disease"}, "[5]": {"settings": "0.25 mg/kg i.p. daily for seven days from day of immunization"}, "[6]": {"settings": "0.25 mg/kg i.p. daily for seven days from day of immunization, mice that had evidence of disease"}, "[7]": {"settings": "0.5 mg/kg i.p. daily for seven days from day of immunization"}, "[8]": {"settings": "0.5 mg/kg i.p. for seven days beginning on day 11"}, "[9]": {"settings": "0.5 mg/kg i.p. for seven days beginning on day 11 following immunization"}, "[10]": {"settings": "1.0 mg/kg i.p. for seven days beginning on day 11"}, "[11]": {"settings": "1.0 mg/kg i.p. for seven days beginning on day 11 following immunization"}},
  "data": [
    {"smiles": "O=C1c2c(O)ccc(O)c2C(=O)c2c(NCCNCCO)ccc(NCCNCCO)c21", "note": "[Mitoxantrone, reference compound]", "values": [
      {"measurement": "Day of Onset", "setting": "acute monophasic EAE [1]; [3]", "value": "12.5 ± 0.67"},
      {"measurement": "Incidence", "setting": "acute monophasic EAE [1]; [3]", "value": 100, "unit": "%"},
      {"measurement": "Mean Clinical Score", "setting": "acute monophasic EAE [1]; [4]", "value": "1.63 ± 0.59"},
      {"measurement": "Max. Clinical Score", "setting": "acute monophasic EAE [1]; [3]", "value": "3.1 ± 0.33"},
      {"measurement": "Incidence", "setting": "acute monophasic EAE [1]; [5]", "value": 40, "unit": "%"},
      {"measurement": "Mean Clinical Score", "setting": "acute monophasic EAE [1]; [6]", "value": "0.21 ± 0.07"},
      {"measurement": "Incidence", "setting": "acute monophasic EAE [1]; [7]", "value": 0, "unit": "%"},
      {"measurement": "Mean Clinical Score", "setting": "acute monophasic EAE [1]; [7]", "value": 0},
      {"measurement": "Max. Clinical Score", "setting": "acute monophasic EAE [1]; [7]", "value": 0},
      {"measurement": "IC50", "setting": "L1210 sensitive", "value": 10, "unit": "nM"},
      {"measurement": "IC50", "setting": "neonatal rat myocytes", "value": 7740, "unit": "nM"},
      {"measurement": "Mean Clinical Score", "setting": "acute monophasic EAE [2]; [8]", "value": "0.59 ± 1.67"},
      {"measurement": "Day of Onset", "setting": "acute monophasic EAE [2]; [9]", "value": "12.2 ± 0.68"},
      {"measurement": "Incidence", "setting": "acute monophasic EAE [2]; [9]", "value": 100, "unit": "%"},
      {"measurement": "Max. Clinical Score", "setting": "acute monophasic EAE [2]; [9]", "value": "2.4 ± 0.36"},
      {"measurement": "Mean Clinical Score", "setting": "acute monophasic EAE [2]; [10]", "value": "0.51 ± 0.21"},
      {"measurement": "Day of Onset", "setting": "acute monophasic EAE [2]; [11]", "value": "13.3 ± 0.55"},
      {"measurement": "Incidence", "setting": "acute monophasic EAE [2]; [11]", "value": 60, "unit": "%"},
      {"measurement": "Max. Clinical Score", "setting": "acute monophasic EAE [2]; [11]", "value": "2.8 ± 0.36"},
      {"measurement": "IC50", "setting": "L1210 resistant", "value": 39, "unit": "nM"}
    ]},
    {"smiles": "CCOc1ccc2c3c(c4ccccc4cc13)C(=O)N(CCN(C)C)C2=O", "note": "[*6-OC2H5]", "values": [
      {"measurement": "Day of Onset", "setting": "acute monophasic EAE [1]; [3]", "value": "11.5 ± 0.88"},
      {"measurement": "Incidence", "setting": "acute monophasic EAE [1]; [3]", "value": 100, "unit": "%"},
      {"measurement": "Mean Clinical Score", "setting": "acute monophasic EAE [1]; [4]", "value": "1.98 ± 0.48"},
      {"measurement": "Max. Clinical Score", "setting": "acute monophasic EAE [1]; [3]", "value": "3.5 ± 0.22"},
      {"measurement": "Day of Onset", "setting": "acute monophasic EAE [1]; [5]", "value": "17.8 ± 3.4"},
      {"measurement": "Incidence", "setting": "acute monophasic EAE [1]; [5]", "value": 100, "unit": "%"},
      {"measurement": "Mean Clinical Score", "setting": "acute monophasic EAE [1]; [6]", "value": "0.88 ± 0.38"},
      {"measurement": "Max. Clinical Score", "setting": "acute monophasic EAE [1]; [5]", "value": "1.8 ± 1.16"},
      {"measurement": "Incidence", "setting": "acute monophasic EAE [1]; [7]", "value": 0, "unit": "%"},
      {"measurement": "Mean Clinical Score", "setting": "acute monophasic EAE [1]; [7]", "value": 0},
      {"measurement": "Max. Clinical Score", "setting": "acute monophasic EAE [1]; [7]", "value": 0},
      {"measurement": "effect in delaying or preventing the onset of clinically symptomatic progressive disease and the disability caused thereby", "setting": "acute monophasic EAE [1]; 0.125, 0.25, 0.5 mg/kg from day of immunization, FIGS. 1-3, Table 2", "value": "dose dependent effect"},
      {"measurement": "IC50", "setting": "L1210 sensitive", "value": 8, "unit": "nM"},
      {"measurement": "IC50", "setting": "neonatal rat myocytes", "value": 1780, "unit": "nM"},
      {"measurement": "Mean Clinical Score", "setting": "acute monophasic EAE [2]; [8]", "value": "1.86 ± 0.35"},
      {"measurement": "Day of Onset", "setting": "acute monophasic EAE [2]; [9]", "value": "11.8 ± 0.72"},
      {"measurement": "Incidence", "setting": "acute monophasic EAE [2]; [9]", "value": 100, "unit": "%"},
      {"measurement": "Max. Clinical Score", "setting": "acute monophasic EAE [2]; [9]", "value": "3.9 ± 0.26"},
      {"measurement": "Mean Clinical Score", "setting": "acute monophasic EAE [2]; [10]", "value": "1.17 ± 0.24"},
      {"measurement": "Day of Onset", "setting": "acute monophasic EAE [2]; [11]", "value": "12.3 ± 0.55"},
      {"measurement": "Incidence", "setting": "acute monophasic EAE [2]; [11]", "value": 60, "unit": "%"},
      {"measurement": "Max. Clinical Score", "setting": "acute monophasic EAE [2]; [11]", "value": "3.7 ± 0.22"},
      {"measurement": "effect in the treatment of clinical symptoms induced in the EAE mouse model", "setting": "acute monophasic EAE [2]; 0.5 and 1.0 mg/kg beginning on day 11, FIG. 4, Table 3", "value": "dose dependent effect"},
      {"measurement": "IC50", "setting": "L1210 resistant", "value": 7, "unit": "nM"}
    ]}
  ]
}
